Laboratory results published in PubChem BioAssay (NCI).
“And” between values parts separate entries of the source, which are not always exact repeats. Equal entries are not always repeated.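 All cell lines were grown in 96-well plates and treated with compound for 48 hours. The concentration for 50% growth inhibition is given as GI50. TGI marks complete inhibition of growth.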

Experiments:
Assay in all cases: growth of human tumour cells (NCI), 48 h
DU-145 prostate = tested on: DU-145 prostate
HS 578T breast = tested on: HS 578T breast
PC-3 prostate = tested on: PC-3 prostate

Structure (SMILES)	GI50 (DU-145 prostate)	TGI (DU-145 prostate)	GI50 (HS 578T breast)	TGI (HS 578T breast)	GI50 (PC-3 prostate) [µM]	TGI (PC-3 prostate) [µM]
CCCCCCCCCCCCCCCC[N+](C)(C)C	0.233 µM and 1.4 µM	0.665 µM and 2.91 µM	0.269 µM and 1.82 µM	0.984 µM and 5.46 µM	0.15	0.376
CN1CCN(c2ccc3nc(-c4ccc5nc(-c6ccc(C(F)(F)F)cc6)[nH]c5c4)[nH]c3c2)CC1	1.76 µM	3.25 µM	2.03 µM	4.49 µM	1.66	3.79
COc1cc2c3c(n(CCCn4cccn4)c(=O)c2cc1OC)-c1cc2c(cc1C3=O)OCO2	0.437 µM	5.57 µM	22.7 µM	> 90.7 µM	16.3	> 100
COc1ccccc1NC(=O)N/C(N)=N/c1nc2ccccc2s1	0.159 µM	> 100 µM	0.0695 µM	> 100 µM	0.0906	> 100
N#C/C(=C/c1cccs1)c1cccs1	> 100 µM	> 100 µM	99.3 µM	> 100 µM	> 100	> 100
COc1cccc(NC(=O)c2ccc(C(F)(F)F)nc2Nc2ccc(Cl)cc2C)c1	15 µM	28.3 µM	6.56 µM	29.3 µM	4.36	17.9
CCCN(CCC)c1ccc(C=O)c(OC)c1	26.6 µM	> 100 µM	15.5 µM	94.4 µM	29.1	> 100
CN([N-]C(=O)CC(=O)[N-]N(C)C(=S)c1ccccc1)C(=S)c1ccccc1.[Cu+2]	0.033 µM	0.133 µM	0.0851 µM	0.619 µM	0.0101	0.0689
Cc1cc(C)c(S(=O)(=O)Oc2ccccc2[N+](=O)[O-])c(C)c1	2.38 µM	> 31.5 µM	1.42 µM	5.24 µM	3.31	> 100
COc1cc2c(C#N)n3c(c2cc1OC)C(=O)C(c1ccccc1)Oc1ccccc1-3 (centres undefined)	91 µM	> 100 µM	4.62 µM	65.5 µM		
CCc1nc2cc(/C=C/C(=O)NO)c(F)cc2c(=O)n1CCc1ccccc1	0.666 µM	10.5 µM	2.95 µM	45.2 µM	3.96	75.6
C=C(C)[C@@H]1CC[C@]2(C)[C@H](CC=C3[C@@H]4CC(C)(C)CC[C@]4(C(=O)OC)CC[C@]32C)[C@@]1(C)CC/C(N)=N/O	1.95 µM	4.28 µM	2.02 µM	4.97 µM	1.91	7.81
COc1cccc2c1C(=O)c1c(O)c3c(c(O)c1C2=O)C[C@@](O)(C(=O)COC(=O)c1cccnc1)C[C@@H]3OC1CC(N)C(O)C(C)O1 (some centres undefined)	0.223 µM	14.1 µM	0.175 µM	0.984 µM	0.222	1.43
O=C(Oc1ccccc1Cl)c1cccnc1Nc1ccnc(C(F)(F)F)c1	15.7 µM	30.4 µM	17.3 µM	48.9 µM	17.8	36.3
C[C@]1(O)CC(=O)[C@]2(O)C3=C(C=C[C@]2(O)C1)C(=O)c1c(O)cccc1C3=O	1.75 µM	3.24 µM	2.74 µM	14.7 µM	2.42	10.1
COc1cc(/C=C\c2cc(/C=C\c3ccc(O)c(OC)c3)n(C(=O)Nc3ccc(C(F)(F)F)cc3)n2)ccc1O	3.67 µM	13 µM	5.1 µM	60.6 µM	3.21	13.5
COc1ncnc2c1ncn2C/C(Br)=C(\Br)CCl	5.31 µM	18.2 µM			9.12	23.3
COc1cc(C)c(N(C)C(=O)CN(C)C)cc1Nc1nc(Nc2cccc(F)c2C(N)=O)c2cc[nH]c2n1	> 25 µM	> 25 µM	> 17.5 µM	> 25 µM	> 25	> 25
CC(C)(C)OC(=O)N(CCCn1c2c(c3ccccc3c1=O)C(=O)c1ccccc1-2)CCN(CCCn1c2c(c3ccccc3c1=O)C(=O)c1ccccc1-2)C(=O)OC(C)(C)C	> 50 µM	> 50 µM	15.8 µM	> 50 µM	> 50	> 50
Cn1c(-c2c(N)n(Cc3ccc(Cl)cc3)c3nc(C#N)c(C#N)nc23)nc2ccccc21	5.94 µM	17.4 µM	4 µM	24.5 µM	4.62	> 50
O=c1c2ccccc2c(C=NCCNCCO)c2oc3ccccc3n12	12.1 µM	24.5 µM			13.9	34.1
CCCCCCCCOC(=O)c1cc(O)c(O)c(O)c1	2.84 µM	14 µM	2.4 µM	22.2 µM	2.02	20.5
c1ccc(CN2CCC3(CC2)ONC2=NCCN23)cc1	> 100 µM	> 100 µM			49.5	> 100
CC(=O)c1ccc(NCn2nc(-c3ccccc3O)oc2=S)cc1			> 100 µM	> 100 µM	46.4	> 100
